Among the data in EP4763847A1 (Jiangsu Yahong Meditech Co., Ltd., priority 2023, dated 2025) are IC50 values, retold here.

What is called IC50 is the concentration that gives 50% inhibition.

One assay relates to HCT116-WT. Kind of assay: Cell proliferation inhibition (CellTiter Glo), HCT116-WT cells. It counts as cell-based. Conditions: 144 h, cultured 6 days with compound. How it is done:
(§1) Test Example 2: Test of cell proliferation inhibition activity of the compounds
(§2) HCT116-WT (ATCC, CCL-247) and HCT116 MTAP KO (Cobioer Nanjing, CBP75002) cells were seeded into white low-transparency 96-well sterile cell culture plates at a density of 250 cells per well, respectively. The culture medium was McCoy's 5A Medium + 10% FBS. The plates were incubated overnight at 37°C with 5% CO2. The cells were treated with compounds gradiently with an initial concentration of 10000 nM, 4-fold dilution, and 8 concentration points. The last two columns were control wells with only DMSO added. The treated cells were continued to be cultured for 6 days. On the seventh day, 50 µL of CellTiter Glo® reagent was added to each well. After reacting on a shaker at room temperature for 10 minutes, the chemiluminescence signal in the plate was detected using the chemiluminescence detection method on a BIOTEK H1 multi-mode plate reader. […] Table 2: IC50 values of compounds for HCT116 MTAP KO/WT cell growth inhibition

In another assay the test system is HCT116 MTAP KO. Kind of assay: Cell proliferation inhibition (CellTiter Glo), HCT116 MTAP KO cells. It counts as cell-based. Conditions: Homo sapiens, HCT-116, 144 h, cultured 6 days with compound. Here is the method:
as §1, §2
For orientation: In ATP-based viability assays light output follows the ATP content of the culture.

The next assay concerns the target PRMT5-MTA (Homo sapiens, UniProt O14744). Kind of assay: biochemical. The settings on record: IC50 (nM), PRMT5+MTA enzyme activity inhibition; PRMT5/MET50 protein 1 nM, 5'-deoxy-5'-adenosine 1 µM, SAM 2.5 µM, Histone H4 substrate 5 nM.

Chain of PRMT5-MTA (O14744 whole entry): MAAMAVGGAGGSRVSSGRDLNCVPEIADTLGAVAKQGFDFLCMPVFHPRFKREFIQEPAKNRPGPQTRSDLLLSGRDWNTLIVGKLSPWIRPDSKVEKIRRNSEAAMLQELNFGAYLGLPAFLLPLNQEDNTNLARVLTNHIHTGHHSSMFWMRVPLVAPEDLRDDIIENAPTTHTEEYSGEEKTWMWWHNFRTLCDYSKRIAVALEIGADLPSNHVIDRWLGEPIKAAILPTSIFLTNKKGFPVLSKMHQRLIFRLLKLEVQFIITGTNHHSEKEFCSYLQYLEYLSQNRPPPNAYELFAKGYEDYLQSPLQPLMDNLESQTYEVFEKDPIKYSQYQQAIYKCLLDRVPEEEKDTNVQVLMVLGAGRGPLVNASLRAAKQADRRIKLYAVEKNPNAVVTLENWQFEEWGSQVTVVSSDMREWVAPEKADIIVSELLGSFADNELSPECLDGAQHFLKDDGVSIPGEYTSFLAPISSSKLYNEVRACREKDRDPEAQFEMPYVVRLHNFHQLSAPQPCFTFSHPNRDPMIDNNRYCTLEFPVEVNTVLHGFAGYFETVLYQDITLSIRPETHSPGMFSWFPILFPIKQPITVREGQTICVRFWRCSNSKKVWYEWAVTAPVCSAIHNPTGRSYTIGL
Chain of PRMT5-MTA (Q9BQA1 whole entry partner): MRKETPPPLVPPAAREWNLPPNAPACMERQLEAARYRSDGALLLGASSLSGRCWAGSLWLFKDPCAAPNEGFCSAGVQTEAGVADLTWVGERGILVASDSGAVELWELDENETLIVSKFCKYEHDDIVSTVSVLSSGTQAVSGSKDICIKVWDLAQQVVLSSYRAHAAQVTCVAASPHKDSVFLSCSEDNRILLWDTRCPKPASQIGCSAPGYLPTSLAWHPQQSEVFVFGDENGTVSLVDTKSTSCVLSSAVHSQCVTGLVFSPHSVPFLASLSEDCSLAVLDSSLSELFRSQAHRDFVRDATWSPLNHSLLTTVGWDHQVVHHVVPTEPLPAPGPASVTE
Protocol for PRMT5-MTA: The enzymatic inhibition activity of the compounds against PRMT5-MTA was detected using the AlphaScreen method. A 1× methyltransferase assay buffer IV (Signalchem) was prepared as a dilution solution for each component of the enzymatic reaction. […] The test compounds were added to all wells except the control wells in a 3-fold dilution series of 10 concentration points starting from 1000 nM using a Tecan D300e. After centrifugation at 1000 rpm for 1 minute in a centrifuge, the plate was incubated at 23°C for 15 minutes. Histone H4 substrate at a final concentration of 5 nM was added to the plate at 4 µL per well. After centrifugation at 1000 rpm for 1 minute in a centrifuge, the plate was reacted in an incubator at 23°C for 45 minutes. Anti-Histone H4 (symmetric dimethyl R3) antibody (Abcam) was pre-incubated with 50 µg/mL AlphaScreen Protein A Acceptor beads (PerkinElmer) at room temperature for 10 minutes, and then added to the plate in a volume of 10 µL per well, followed by reaction at room temperature for 1 hour. 10 µL of 50 µg/mL AlphaScreen Streptavidin Donor beads (PerkinElmer) were added to each well, and reacted at room temperature for 1 hour. The signal values in the plate were detected using the Alpha method on an Envision multi-mode plate reader. The IC50 values of the compounds for PRMT5/MET50 enzyme activity inhibition were calculated in Xlfit 5.0 software.

Take `CNC(N)=Nc1ccc(C(=O)N(Cc2ccc(C(F)(F)F)cn2)c2cccc3ccccc23)cn1` [Compound 47]: the values for the 50% inhibitory concentration (IC50) in the assay on HCT116-WT, in the assay with HCT116 MTAP KO and against PRMT5-MTA were 593 nM, 31 nM and 1.4 nM, respectively.

For `CNC(N)=Nc1ccc(C(=O)N(Cc2ccc(C(F)(F)F)cn2)c2cccc3nccnc23)cn1` [Compound 50], the IC50 in the assay with HCT116-WT is 512 nM; in the assay with HCT116 MTAP KO, 25 nM; against PRMT5-MTA it was 1.7 nM.

On to `CNC(N)=Nc1ccc(C(=O)N(Cc2ccc(C(F)(F)F)cn2)c2csc3cccnc23)cn1` [Compound 51], for which the IC50 with HCT116-WT came to 618 nM; in the assay on HCT116 MTAP KO, 51 nM; on PRMT5-MTA it was 2.6 nM.

For `CNC(N)=Nc1ccc(C(=O)N(Cc2ccc(C(F)(F)F)cn2)n2ccc3cccnc32)cn1` [Compound 56, 6-((amino(methylamino)methylene)amino)-N-(1H-pyrrolo[2,3-b]pyridin-1-yl)-N-[(5-(trifluoromethyl)pyridin-2-yl)methyl)nicotinamide], the IC50 is 536 nM with HCT116-WT, 36 nM in the assay on HCT116 MTAP KO and 5.8 nM against PRMT5-MTA.

For the compound `CNC(N)=Nc1ccc(C(=O)N(Cc2ccc(C(F)(F)F)cn2)C(C)c2ccccc2OC(F)(F)F)cn1` (stereo not drawn) [Compound 60], the results for the IC50 with HCT116-WT, in the assay with HCT116 MTAP KO and on PRMT5-MTA were 2950 nM, 933 nM and 2.8 nM, respectively.

As for `CNC(N)=Nc1ccc(C(=O)N(Cc2ccc(C(F)(F)F)cn2)C2CCCc3ccccc32)cn1` (stereo not drawn) [Compound 61], the 50% inhibitory concentration (IC50) was determined as 769 nM in the assay on HCT116-WT, 28 nM with HCT116 MTAP KO and 1.4 nM against PRMT5-MTA.

As for `CNC(N)=Nc1ccc(C(=O)N(Cc2ccc(C(F)(F)F)cn2)n2ccc3ccccc32)cn1` [Compound 62], the IC50 in the assay on HCT116-WT stood at 1790 nM; in the assay with HCT116 MTAP KO, 76 nM; against PRMT5-MTA, 4.1 nM.

Regarding `CNC(N)=Nc1ccc(C(=O)N(Cc2ccc(C(F)(F)F)cn2)N2CCc3ccccc32)cn1` [Compound 64], the IC50 with HCT116-WT stood at 1960 nM; with HCT116 MTAP KO, 63 nM; against PRMT5-MTA, 3.2 nM.

As to `CN/C(N)=N\c1ccc(C(=O)N(Cc2ccc(-c3ccc(N4CCOCC4)nc3)cn2)[C@H](C)c2ccccc2F)cn1` [Compound 67, (R,Z)-6-((amino(methylamino)methylene)amino)-N-(1-(2-fluorophenyl)ethyl)-N-((6'-morpholino-[3,3'-bipyridin]-6-yl)methyl)nicotinamide], the IC50 in the assay on HCT116-WT was 672 nM; in the assay on HCT116 MTAP KO it was 145 nM; on PRMT5-MTA, 5.7 nM.

As to `CNC(N)=Nc1ccc(C(=O)N(Cc2ccc(-c3cccnc3)cn2)[C@H](C)c2ccccc2F)cn1` [Compound 68], the IC50 with HCT116-WT came to 1990 nM; in the assay on HCT116 MTAP KO, 169 nM; against PRMT5-MTA, 7.7 nM.

As to `CNC(N)=Nc1ccc(C(=O)N(Cc2ccc(-c3cnn(C(F)(F)F)c3)cn2)[C@H](C)c2ccccc2F)cn1` [Compound 69], the results for the IC50 in the assay on HCT116-WT, with HCT116 MTAP KO and against PRMT5-MTA were 643 nM, 50 nM and 4.8 nM, respectively.

As for `CNC(N)=Nc1ccc(C(=O)N(Cc2ccc(-c3cnc(C)nc3)cn2)[C@H](C)c2ccccc2F)cn1` [Compound 70], the IC50 is 2580 nM with HCT116-WT, 150 nM in the assay with HCT116 MTAP KO and 3.9 nM on PRMT5-MTA.

As for `CNC(N)=Nc1ccc(C(=O)N(Cc2ccc(-c3ccc(C)nc3)cn2)[C@H](C)c2ccccc2F)cn1` [Compound 71], the concentration for half-maximal inhibition (IC50) with HCT116-WT is 1090 nM; in the assay on HCT116 MTAP KO, 62 nM; against PRMT5-MTA, 7.7 nM.

`CNC(N)=Nc1ccc(C(=O)N(Cc2ccc(-c3cnc4c(cnn4C)c3)cn2)[C@H](C)c2ccccc2F)cn1` [Compound 73]: the IC50 in the assay on HCT116-WT amounted to 1080 nM; with HCT116 MTAP KO, 72 nM; against PRMT5-MTA it was 6.5 nM.

Take `CNC(N)=Nc1ccc(C(=O)N(Cc2ccc(C(C)F)cn2)[C@H](C)c2ccccc2F)cn1` (stereo partly drawn) [Compound 74, 6-((Z)-(amino(methylamino)methylene)amino)-N-((5-(1-fluoroethyl)pyridin-2-yl)methy 1)-N-((R)-1-(2-fluorophenyl)ethyl)nicotinamide]: the IC50 in the assay on HCT116-WT was found to be 744 nM; in the assay on HCT116 MTAP KO, 41 nM; against PRMT5-MTA, 8 nM.

As for `CN/C(N)=N\c1ccc(C(=O)N(Cc2ccc(C(C)(C)F)cn2)[C@H](C)c2ccccc2F)cn1` [Compound 75, (R,Z)-6-((amino(methylamino)methylene)amino)-N-(1-(2-fluorophenyl)ethyl)-N-((5-(2-fluoropropan-2-yl)pyridin-2-yl)methyl)nicotinamide], the IC50 with HCT116-WT is 844 nM; with HCT116 MTAP KO, 36 nM; against PRMT5-MTA, 2.6 nM.

Take `CN/C(N)=N\c1ccc(C(=O)N(Cc2ccc(C(C)(F)F)cn2)[C@H](C)c2ccccc2F)cn1` [Compound 76, (R,Z)-6-((amino(methylamino)methylene)amino)-N-((5-(1,1-difluoroethyl)pyridin-2-yl)methyl)-N-(1-(2-fluorophenyl)ethyl)nicotinamide]: the values for the IC50 in the assay with HCT116-WT, in the assay on HCT116 MTAP KO and on PRMT5-MTA were 345 nM, 32 nM and 5.4 nM, respectively.

As to `CN/C(N)=N\c1ccc(C(=O)N(Cc2ccc(OC(F)(F)F)cn2)[C@H](C)c2ccccc2F)cn1` [Compound 77, (R,Z)-6-((amino(methylamino)methylene)amino)-N-(1-(2-fluorophenyl)ethyl)-N-((5-(trifluoromethoxy)pyridin-2-yl)methyl)nicotinamide], the IC50 in the assay on HCT116-WT was 330 nM; in the assay with HCT116 MTAP KO it was 28 nM; at PRMT5-MTA it was 4 nM.

`CN/C(N)=N\c1ccc(C(=O)N(Cc2ccc3nc(C)sc3c2)[C@H](C)c2ccccc2F)cn1` [Compound 78, (R,Z)-6-((amino(methylamino)methylene)amino)-N-(1-(2-fluorophenyl)ethyl)-N-((2-methylbenzo[d]thiazol-6-yl)methyl)nicotinamide]: the results for the IC50 in the assay on HCT116-WT, with HCT116 MTAP KO and against PRMT5-MTA were 1860 nM, 287 nM and 7.7 nM, respectively.

Regarding `CNC(N)=Nc1ccc(C(=O)N(Cc2ccc3sc(C4CCN(C)CC4)nc3c2)[C@H](C)c2ccccc2F)cn1` [Compound 79], the IC50 came out at 3440 nM in the assay with HCT116-WT, 782 nM in the assay on HCT116 MTAP KO and 3.1 nM on PRMT5-MTA.

Consider `CN/C(N)=N\c1ccc(C(=O)N(Cc2ccc(C(F)(F)F)cn2)[C@H](C)c2ccc(F)cc2F)cn1` [Compound 82, (R,Z)-6-((amino(methylamino)methylene)amino)-N-(1-(2,4-difluorophenyl)ethyl)-N-((5-(trifluoromethyl)pyridin-2-yl)methyl)nicotinamide], for which the IC50 stood at 226 nM in the assay with HCT116-WT, 18 nM in the assay on HCT116 MTAP KO and 4.2 nM against PRMT5-MTA.

Take `CNC(N)=Nc1ccc(C(=O)N(Cc2ccc(C(F)(F)F)cn2)[C@@H]2CCc3ccccc32)cn1` [Compound 83]: the 50% inhibitory concentration (IC50) in the assay with HCT116-WT was determined as 1710 nM; in the assay on HCT116 MTAP KO, 195 nM; on PRMT5-MTA, 4 nM.

On to `CNC(N)=Nc1ccc(C(=O)N(Cc2ccc(C(F)(F)F)cn2)[C@H](C)c2cc(F)ccc2F)cn1` [Compound 85], for which the IC50 with HCT116-WT amounted to 290 nM; in the assay on HCT116 MTAP KO, 11 nM; on PRMT5-MTA it was 4 nM.

Take `CNC(N)=Nc1ccc(C(=O)N(Cc2ccc(C(F)(F)F)cn2)C2CCOc3ccccc32)cn1` (stereo not drawn) [Compound 86]: the IC50 in the assay with HCT116-WT was 867 nM; in the assay with HCT116 MTAP KO, 60 nM; against PRMT5-MTA, 0.7 nM.

Turning to `CNC(N)=Nc1ccc(C(=O)N(Cc2ccc(C(F)(F)F)cn2)[C@H]2CCc3ccccc32)cn1` [Compound 87], the concentration for half-maximal inhibition (IC50) is 3310 nM in the assay on HCT116-WT, 975 nM with HCT116 MTAP KO and 2.7 nM against PRMT5-MTA.

In the case of `CNC(N)=Nc1ccc(C(=O)N(Cc2ccc(C(F)(F)F)cn2)C(C)c2ccccc2Cl)cn1` (stereo not drawn) [Compound 88], the IC50 in the assay with HCT116-WT stood at 3840 nM; in the assay on HCT116 MTAP KO it was 616 nM; at PRMT5-MTA, 3.3 nM.

Take `CNC(N)=Nc1ccc(C(=O)N(Cc2ccc(C(F)(F)F)cn2)[C@H](C)c2ccccc2F)cn1` [Compound 89]: the IC50 in the assay with HCT116-WT turned out to be 421 nM; in the assay with HCT116 MTAP KO, 12 nM; on PRMT5-MTA, 0.6 nM.

With `CNC(N)=Nc1ccc(C(=O)N(Cc2ccc(C(F)(F)F)cn2)C2CCOc3cccnc32)cn1` (stereo not drawn) [Compound 90], the results for the IC50 in the assay with HCT116-WT, with HCT116 MTAP KO and against PRMT5-MTA were 1520 nM, 81 nM and 1.5 nM, respectively.

As to `CNC(N)=Nc1ccc(C(=O)N(Cc2ccc(C(F)(F)F)cn2)[C@H](C)c2cccc(F)c2F)cn1` [Compound 91], the IC50 with HCT116-WT came out at 2010 nM; in the assay on HCT116 MTAP KO, 96 nM; at PRMT5-MTA it was 2.2 nM.

As for `CN/C(N)=N\c1ccc(C(=O)N(Cc2ccc(C(F)(F)F)cn2)C2CCc3cccnc32)cn1` (stereo not drawn) [Compound 92, (Z)-6-((amino(methylamino)methylene)amino)-N-(6,7-dihydro-5H-cyclopenta[b]pyridin-7-yl)-N-((5-(trifluoromethyl)pyridin-2-yl)methyl)nicotinamide], the figures for the IC50 in the assay on HCT116-WT, in the assay with HCT116 MTAP KO and against PRMT5-MTA were 1480 nM, 134 nM and 1.6 nM, respectively.

Turning to `CN/C(N)=N\c1ccc(C(=O)N(Cc2ccc(C(F)(F)F)cn2)C(c2ccccc2F)C2CC2)cn1` (stereo not drawn) [Compound 94, (Z)-6-((amino(methylamino)methylene)amino)-N-(cyclopropyl(2-fluorophenyl)methyl) -N-((5-(trifluoromethyl)pyridin-2-yl)methyl)nicotinamide], the values for the half-maximal inhibitory concentration (IC50) in the assay with HCT116-WT, in the assay on HCT116 MTAP KO and on PRMT5-MTA were 912 nM, 49 nM and 6.6 nM, respectively.
